Like-named read-outs stand apart in the source and are kept apart here.

The test system of one test is Molm-13 cells. Kind of test: Leukemia cell proliferation inhibition test (ATPlite), Molm-13. Type of test: cell-based. The settings on record: Homo sapiens, read-out: MOLM13 cell proliferation inhibition effect. Put shortly:
(§1)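 Luminescent ATP read-out (firefly luciferase) used as a total cell count after 72 h compound exposure at 37° C, 5% CO2. Cells: 10,000/well in RPMI + 10% FBS. GI50 = 50% inhibition relative to 0.1% DMSO, from a sigmoid dose-response fit; duplicates.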

For another test, the system named is MV4-11 cells. Kind of test: Leukemia cell proliferation inhibition test (ATPlite), MV4-11. In kind it is cell-based. The settings on record: Homo sapiens, read-out: MV4-11 cell proliferation inhibition effect. Put shortly:
as §1
Background: ATP-based viability assays read luminescence as a measure of living cells.

For test [1], the target named is T1, human FLT3 protein (FLT3 (WT)) (Homo sapiens, UniProt P36888).
T1 construct: human FLT3 protein (intracellular region, 564 to 993 aa); GST; purchased Carna Biosciences; host or cells: baculovirus expression system
T1 sequence (P36888 564-993): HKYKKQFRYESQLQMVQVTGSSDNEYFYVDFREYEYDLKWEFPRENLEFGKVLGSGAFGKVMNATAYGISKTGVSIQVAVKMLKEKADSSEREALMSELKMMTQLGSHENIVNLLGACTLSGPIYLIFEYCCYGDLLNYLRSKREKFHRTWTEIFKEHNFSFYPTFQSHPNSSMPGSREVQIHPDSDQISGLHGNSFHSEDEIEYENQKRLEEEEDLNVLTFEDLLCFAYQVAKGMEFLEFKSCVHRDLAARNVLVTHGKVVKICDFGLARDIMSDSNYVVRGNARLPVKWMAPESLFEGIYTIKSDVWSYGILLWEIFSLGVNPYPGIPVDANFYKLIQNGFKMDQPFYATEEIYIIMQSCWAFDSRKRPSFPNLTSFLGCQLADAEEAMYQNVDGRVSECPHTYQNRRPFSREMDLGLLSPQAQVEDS
As to the kind of experiment: FLT3 inhibition test (FLT3 enzyme inhibition, time-resolved fluorescence of substrate peptide phosphorylation). In kind it is biochemical. The settings on record: read-out: FLT3 (WT) enzyme inhibition activity. In short, it runs like this:
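Wild-type human FLT3 (1.2 μg) pre-incubated with compound 15 min at 25° C in 100 mM HEPES pH 7.5, 10 mM MgCl2, 25 mM NaCl, 1 mM DTT. Reaction started with substrate peptide and ATP (final 50 μM), run 30 min at 25° C; phosphorylation read by time-resolved fluorescence.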

Setting [2] is: MOLM-13, 72 h, Molm-13, 72 hours culture, ATPlite, GI50 per method.
[3] abbreviates: MV4-11, 72 h, MV4-11, 72 hours culture, ATPlite, GI50 per method.
Where [4] appears, read: GST-fused human FLT3 (564 to 993 aa), ATP 50 μM.

As for `C[C@@H](C(=O)NCCCC#Cc1cnc(Nc2ccc(F)nc2)nc1NCC(F)(F)F)N(C)C(=O)/C=C/CN(C)C` [Compound 10-33], the IC50 (in the test with Molm-13 cells (setting [2]); with MV4-11 cells (setting [3]); in test [1] (setting [4])) was less than 0.01 µM throughout.

Turning to `CCCNc1nc(Nc2ccc(C#N)cc2)ncc1C#CCCCNC(=O)CNC(=O)/C=C/CN(C)C` [Compound 7-57], the IC50 (in the test on Molm-13 cells (setting [2]); in the test with MV4-11 cells (setting [3]); in test [1] (setting [4])) was less than 0.01 µM in each case.

Turning to `CNc1nc(Nc2ccc(C#N)cc2)ncc1C#CCCCNC(=O)CN(C)C(=O)/C=C/CN(C)C` [Compound 7-88, (E)-N-(2-((5-(2-((4-Cyanophenyl)amino)-4-(methylamino)pyrimidin-5-yl)-4-pentyn-1-yl)amino)-2-oxoethyl)-4-(dimethylamino)-N-methyl-2-butenamide], the IC50 (with Molm-13 cells (setting [2]); in the test with MV4-11 cells (setting [3]); in test [1] (setting [4])) was less than 0.01 µM throughout.

For the compound `CCCNc1nc(Nc2ccc3cnn(CCOC)c3c2)ncc1C#CCCCNC(=O)[C@@H]1CCCN1C(=O)/C=C/CN(C)C` [Compound 22-33], the IC50 in the test on Molm-13 cells (MOLM-13, MOLM13 cell) is less than 0.01 µM; in the test on MV4-11 cells (MV4-11, MV4-11 cell) it was less than 0.01 µM; in test [1] (FLT3 (WT)), less than 0.01 µM.

With `CCCNc1nc(Nc2ccc(OC(F)(F)F)cc2)ncc1C#CCCCNC(=O)[C@H](C)N(C)C(=O)/C=C/CN(C)C` [Compound 12-6], the IC50 fell in the range of 0.1 to 1 µM with Molm-13 cells (setting [2]), 0.01 to 0.1 µM in the test with MV4-11 cells (setting [3]) and 0.01 to 0.1 µM in test [1] (setting [4]).

As for `COc1ccc(Nc2nc(Nc3cccc(F)c3)ncc2C#CCCCNC(=O)[C@H](C)N(C)C(=O)/C=C/CN(C)C)cn1` [Compound 7-19], the IC50 (in the test with Molm-13 cells (setting [2]); in the test on MV4-11 cells (setting [3]); in test [1] (setting [4])) was less than 0.01 µM throughout.

As for `CNc1nc(Nc2ccc(F)cc2)ncc1C#CCCCNC(=O)[C@@H]1CCCN1C(=O)/C=C/CN(C)C` [Compound 21-43], the IC50 in the test on Molm-13 cells (MOLM-13, MOLM13 cell) is less than 0.01 µM; in the test with MV4-11 cells (MV4-11, MV4-11 cell), less than 0.01 µM; in test [1] (FLT3 (WT)), less than 0.01 µM.

As to `CCCNc1nc(Nc2ccc(C#N)cc2)ncc1C#C[C@@H]1CC[C@H](NC(=O)[C@H](C)N(C)C(=O)/C=C/CN(C)C)C1` [Compound 13-11], the IC50 (with Molm-13 cells (setting [2]); with MV4-11 cells (setting [3]); in test [1] (setting [4])) was less than 0.01 µM each time.

Take `CCCNc1nc(Nc2cccc(F)c2)ncc1C#CCCCNC(=O)[C@@H]1C[C@@H](O)CN1C(=O)/C=C/CN(C)C` [Compound 7-66, (2S,4R)-1-((E)-4-(Dimethylamino)-2-butenoyl)-N-(5-(2-((3-fluorophenyl)amino)-4-(propylamino)pyrimidin-5-yl)-4-pentyn-1-yl)-4-hydroxypyrrolidine-2-carboxamide]: the IC50 (with Molm-13 cells (setting [2]); in the test on MV4-11 cells (setting [3]); in test [1] (setting [4])) was less than 0.01 µM throughout.

In the case of `C[C@@H](C(=O)NCCCC#Cc1cnc(Nc2cccc(F)c2)nc1OC1CCC1)N(C)C(=O)/C=C/CN(C)C` [Compound 7-6], the results for the IC50 (with Molm-13 cells (setting [2]); in the test on MV4-11 cells (setting [3]); in test [1] (setting [4])) were 0.01 to 0.1 µM, 0.01 to 0.1 µM and less than 0.01 µM, respectively.

On to `C[C@@H](C(=O)NCCCC#Cc1cnc(Nc2ccc(C#N)cc2)nc1NC1CCCC1)N(C)C(=O)/C=C/CN(C)C` [Compound 10-48], for which the IC50 (in the test with Molm-13 cells (setting [2]); in the test with MV4-11 cells (setting [3]); in test [1] (setting [4])) was less than 0.01 µM throughout.

As to `CCCNc1nc(Nc2cccc(F)c2)ncc1C#Cc1ccccc1CNC(=O)[C@H](C)N(C)C(=O)/C=C/CN(C)C` [Compound 7-25], the IC50 was 0.01 to 0.1 µM in the test with Molm-13 cells (setting [2]), less than 0.01 µM in the test with MV4-11 cells (setting [3]) and less than 0.01 µM in test [1] (setting [4]).

Take `C=CC(=O)N1CCC(NC(=O)c2cnc(NCCc3ccncc3)nc2NCCC)CC1` [Compound 6-18]: the results for the IC50 (in the test with Molm-13 cells (setting [2]); in the test on MV4-11 cells (setting [3]); in test [1] (setting [4])) were 0.01 to 0.1 µM, 0.01 to 0.1 µM and less than 0.01 µM, respectively.

Take `CNc1nc(Nc2ccc(C#N)cc2)ncc1C#CCCCNC(=O)[C@H](C)N(C)C(=O)/C=C/CN(C)C` [Compound 10-45]: the IC50 (in the test on Molm-13 cells (setting [2]); in the test on MV4-11 cells (setting [3]); in test [1] (setting [4])) was less than 0.01 µM each time.

Consider `CCCNc1nc(Nc2ccc(C(N)=O)cc2)ncc1C#CCCCNC(CCOC)(CCOC)CNC(=O)/C=C/CN(C)C` [Compound 8-13], for which the IC50 in the test with Molm-13 cells (setting [2]) was 0.01 to 0.1 µM; in the test with MV4-11 cells (setting [3]), 0.01 to 0.1 µM; in test [1] (setting [4]), less than 0.01 µM.

Consider `COc1ccc(Nc2ncc(C#CCCCNC(=O)[C@H](C)N(C)C(=O)/C=C/CN(C)C)c(NC3CC3)n2)cc1F` [Compound 7-42, (S,E)-N-(1-((5-(4-(Cyclopropylamino)-2-((3-fluoro-4-methoxyphenyl)amino)pyrimidin-5-yl)-4-pentyn-1-yl)amino)-1-oxopropan-2-yl)-4-(dimethylamino)-N-methyl-2-butenamide], for which the IC50 (with Molm-13 cells (setting [2]); in the test with MV4-11 cells (setting [3]); in test [1] (setting [4])) was less than 0.01 µM in each case.

`CCCNc1nc(Nc2cccc(F)c2)ncc1C#CCCCNC(=O)[C@H](C(C)C)N(C)C(=O)/C=C/CN(C)C` [Compound 7-10]: the IC50 with Molm-13 cells (setting [2]) was 0.01 to 0.1 µM; with MV4-11 cells (setting [3]), 0.01 to 0.1 µM; in test [1] (setting [4]), less than 0.01 µM.

With `CNc1nc(Nc2ccc(F)nc2)ncc1C#C[C@@H]1CCC[C@H](NC(=O)[C@H](C)N(C)C(=O)/C=C/CN(C)C)C1` [Compound 15-3], the IC50 (in the test on Molm-13 cells (setting [2]); with MV4-11 cells (setting [3]); in test [1] (setting [4])) was less than 0.01 µM throughout.

Take `COCCCNc1nc(Nc2ccc3[nH]ncc3c2)ncc1C#CCCCNC(=O)[C@@H]1CCCN1C(=O)/C=C/CN(C)C` [Compound 10-68, (S,E)-N-(5-(2-((1H-Indazol-5-yl)amino)-4-((3-methoxypropyl)amino)pyrimidin-5-yl)-4-pentyn-1-yl)-1-(4-(dimethylamino)-2-butenoyl)pyrrolidine-2-carboxamide]: the IC50 (with Molm-13 cells (setting [2]); in the test on MV4-11 cells (setting [3]); in test [1] (setting [4])) was less than 0.01 µM throughout.

For `CCCNc1nc(Nc2ccc(C#N)cc2)ncc1C#CC(C)(C)CCNC(=O)[C@H](C)N(C)C(=O)/C=C/CN(C)C` [Compound 9-26], the IC50 (in the test with Molm-13 cells (setting [2]); in the test with MV4-11 cells (setting [3]); in test [1] (setting [4])) was less than 0.01 µM in each case.

`CCCNc1nc(Nc2cccc(OC(F)F)c2)ncc1C#CCCCNC(=O)[C@H](C)N(C)C(=O)/C=C/CN(C)C` [Compound 9-28]: the IC50 (with Molm-13 cells (setting [2]); in the test on MV4-11 cells (setting [3]); in test [1] (setting [4])) was less than 0.01 µM throughout.

For `CCCNc1nc(Nc2cccc(F)c2)ncc1-c1cc(CCNC(=O)[C@H](C)N(C)C(=O)/C=C/CN(C)C)no1` [Compound 17-1, (S,E)-4-(dimethylamino)-N-(1-((2-(5-(2-((3-fluorophenyl)amino)-4-(propylamino)pyrimidin-5-yl)isoxazol-3-yl)ethyl)amino)-1-oxopropan-2-yl)-N-methyl-2-butenamide], the IC50 (in the test with Molm-13 cells (setting [2]); in the test with MV4-11 cells (setting [3]); in test [1] (setting [4])) was less than 0.01 µM in each case.

As to `CCCNc1nc(Nc2cc(C)no2)ncc1C#CCCCNC(=O)[C@H](C)N(C)C(=O)/C=C/CN(C)C` [Compound 7-78], the IC50 was 0.01 to 0.1 µM with Molm-13 cells (setting [2]), less than 0.01 µM in the test with MV4-11 cells (setting [3]) and less than 0.01 µM in test [1] (setting [4]).

With `CCCNc1nc(Nc2ccc3cnn(C)c3c2)ncc1C#CCCCNC(=O)[C@H](C)N(C)C(=O)/C=C/CN(C)C` [Compound 21-9], the IC50 (in the test on Molm-13 cells (setting [2]); with MV4-11 cells (setting [3]); in test [1] (setting [4])) was less than 0.01 µM throughout.

As for `C=CC(=O)N(C)CC(=O)NCCCNC(=O)c1cnc(NCCc2ccncc2)nc1NCCC` [Compound 2-23], the IC50 was less than 0.01 µM in the test on Molm-13 cells (setting [2]), 0.01 to 0.1 µM in the test on MV4-11 cells (setting [3]) and less than 0.01 µM in test [1] (setting [4]).

For the compound `CCCNc1nc(Nc2ccnc(F)c2)ncc1C#CC(C)(C)CCNC(=O)[C@H](C)N(C)C(=O)/C=C/CN(C)C` [Compound 9-19], the IC50 (with Molm-13 cells (setting [2]); in the test on MV4-11 cells (setting [3]); in test [1] (setting [4])) was less than 0.01 µM throughout.

Regarding `COCCCNc1nc(Nc2ccc(F)cc2)ncc1C#CCCCNC(=O)[C@H](C)N(C)C(=O)/C=C/CN(C)C` [Compound 10-26], the IC50 is 0.01 to 0.1 µM with Molm-13 cells (setting [2]), less than 0.01 µM in the test on MV4-11 cells (setting [3]) and less than 0.01 µM in test [1] (setting [4]).

Consider `CCCNc1nc(NCCc2ccncc2)ncc1C(=O)Nc1cccc(NC(=O)CNC(=O)/C=C/CN2CCN(CCO)CC2)c1` [Compound 2-16], for which the IC50 is 0.1 to 1 µM in the test with Molm-13 cells (setting [2]), 0.01 to 0.1 µM in the test with MV4-11 cells (setting [3]) and less than 0.01 µM in test [1] (setting [4]).

In the case of `CCCNc1nc(Nc2ccc(C(N)=O)cc2)ncc1C(=O)Nc1cccc(NC(=O)[C@H](C)N(C)C(=O)/C=C/C(CC)N(C)C)c1` (stereo partly drawn) [Compound 4-15], the IC50 is 0.1 to 1 µM in the test on Molm-13 cells (setting [2]), 0.01 to 0.1 µM in the test on MV4-11 cells (setting [3]) and less than 0.01 µM in test [1] (setting [4]).

The values above are taken from patent US9145415B2, “Nitrogen-containing heterocyclic compound or salt thereof” (FUJIFILM Corporation, priority 2012, dated 2015).
